Consider one molecule from patent publication US11433081B2 (priority 2018, dated 2022).

Each structure is given as a SMILES string.

This assay relates to Chronic Pain. The note with it: human, in vivo, po.

Regarding `COc1ccc2c3c1O[C@H]1C(=O)CC[C@@]4(O)[C@@H](C2)N(C)CC[C@]314` [Oxycodone], the Pain level is given as 3 /10.
